Data published in PMC9318802, “Optimization of 2-Aminoquinazolin-4-(3H)-one Derivatives as Potent Inhibitors of SARS-CoV-2: Improved Synthesis and Pharmacokinetic Properties” (Pharmaceuticals, 2022).
Entries after “also recorded” stand apart in the source; their conditions may differ. Like-named read-outs stand apart in the source and are kept apart here.

Columns and labels:
SARS-CoV-2 = assay: Anti-SARS-CoV-2 immunofluorescence assay in Vero cells; type: cell-based; settings: for IC50: Severe acute respiratory syndrome coronavirus 2, immunofluorescence, at least two independent experiments
in vitro [1] = settings: African green monkey
[2] = Microsomal stability assay, rat liver microsomes; settings: percentage of original compound remaining after 30 min incubation, NADPH
[3] = Microsomal stability assay, human liver microsomes; settings: percentage of original compound remaining after 30 min incubation, NADPH
Vero cells = settings: Vero cell assay, previously reported; cited from earlier work
[4] = rats, oral, 10 mg/kg; ref previously reported; cited from earlier work
[5] = test system: SARS-CoV-2 spike pseudo-typed lentivirus; assay: microbe, parasite or virus in culture; type: cell-based; settings: Severe acute respiratory syndrome coronavirus 2, NCI-H1299, 48 h; read-out: IC50 (SARS-CoV-2 spike pseudo-typed virus entry)
[6] = In vivo oral pharmacokinetics in Sprague Dawley rats; settings: rat, blood, male Sprague Dawley rats, 10 mg/kg; for Cmax / Tmax / half-life: n = 3; for AUC(0-t): n = 3, read-out: AUC24h
Protocol: Compounds 2a–c were selected for in vivo pharmacokinetic studies based on their ClogP and selectivity index (SI) values. Each compound was administered orally at 10 mg/kg to three Sprague Dawley rats (Figure 2). […] The lipophilic properties and the small size of the fluorine moieties likely enhance the absorption of compound 2b.
Figure 2 Pharmacokinetic evaluation of compounds 1a, 2a, 2b, and 2c. Each compound was orally administrated to male Sprague Dawley rats (n = 3) at 10 mg/kg. TEXT PRINTED IN THE PICTURE: 1a: Tmax (h): 2.50; Cmax (μg/mL): 0.87; T1/2 (h): 5.65; AUC24h (μg·h/mL): 6.62 | 2a: Tmax (h): 4.67; Cmax (μg/mL): 1.85; T1/2 (h): 4.95; AUC24h (μg·h/mL): 24.31 | 2b: Tmax (h): 4.00; Cmax (μg/mL): 5.56; T1/2 (h): 1.96; AUC24h (μg·h/mL): 41.57 | 2c: Tmax (h): 3.33; Cmax (μg/mL): 1.96; T1/2 (h): 6.69; AUC24h (μg·h/mL): 10.77

hERG K+ channel = hERG K+ channel (Homo sapiens, UniProt Q12809); assay: cell-based
hERG K+ channel, sequence (Q12809 whole entry): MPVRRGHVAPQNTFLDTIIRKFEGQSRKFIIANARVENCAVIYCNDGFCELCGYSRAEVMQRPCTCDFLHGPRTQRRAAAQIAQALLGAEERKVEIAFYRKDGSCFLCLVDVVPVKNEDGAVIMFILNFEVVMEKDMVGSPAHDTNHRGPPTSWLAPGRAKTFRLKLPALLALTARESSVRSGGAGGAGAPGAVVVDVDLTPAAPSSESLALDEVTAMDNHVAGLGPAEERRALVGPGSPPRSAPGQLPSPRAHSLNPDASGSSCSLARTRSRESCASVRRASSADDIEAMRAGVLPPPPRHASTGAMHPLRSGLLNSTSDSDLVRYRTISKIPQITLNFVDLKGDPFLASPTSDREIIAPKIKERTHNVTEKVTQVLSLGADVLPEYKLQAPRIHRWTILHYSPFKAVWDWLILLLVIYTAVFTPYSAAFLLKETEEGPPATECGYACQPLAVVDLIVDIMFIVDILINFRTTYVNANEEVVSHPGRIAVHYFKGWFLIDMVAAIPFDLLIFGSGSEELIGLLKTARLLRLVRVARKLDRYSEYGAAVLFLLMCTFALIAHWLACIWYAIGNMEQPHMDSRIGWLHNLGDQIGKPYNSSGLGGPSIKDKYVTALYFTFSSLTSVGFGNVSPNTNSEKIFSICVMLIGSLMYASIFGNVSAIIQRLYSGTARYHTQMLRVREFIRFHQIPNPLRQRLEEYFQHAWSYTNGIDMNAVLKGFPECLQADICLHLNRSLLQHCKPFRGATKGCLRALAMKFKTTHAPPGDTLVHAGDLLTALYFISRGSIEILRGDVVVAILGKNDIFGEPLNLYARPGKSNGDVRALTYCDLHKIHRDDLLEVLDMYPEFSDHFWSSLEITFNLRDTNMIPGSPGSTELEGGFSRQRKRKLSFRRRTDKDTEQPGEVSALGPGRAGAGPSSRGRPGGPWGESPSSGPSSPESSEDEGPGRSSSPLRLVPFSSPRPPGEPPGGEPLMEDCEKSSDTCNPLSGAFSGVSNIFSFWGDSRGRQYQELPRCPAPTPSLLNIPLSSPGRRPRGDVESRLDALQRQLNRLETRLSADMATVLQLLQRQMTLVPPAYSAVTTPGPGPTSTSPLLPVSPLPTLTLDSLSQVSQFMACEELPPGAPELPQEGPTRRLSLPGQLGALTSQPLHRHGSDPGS

[7] = EZ-Cytox cell viability assay, NIH 3T3; settings: mouse, Cytotoxicity (CC50) NIH 3T3, EZ-Cytox
[8] = test system: NIH 3T3, mouse embryonic fibroblast cells; assay: EZ-Cytox cell viability assay, NIH 3T3; settings: read-out: Cytotoxicity (CC50) NIH 3T3; EZ-Cytox, 24 h
[9] = Cytotoxicity (CC50) in uninfected Vero cells; settings: African green monkey
[10] = set-up: method as in PMID 34914868, PMID 34914869; settings: cited from earlier work
[11] = In vivo single-dose toxicity in male Sprague Dawley rats; set-up: species or system rat; settings: for Clinical signs: animals with liquid feces: n = 4, recovered by day 4; for Body weight change: recovered on day 14
Protocol: After single administration using 55% PEG200 in distilled water as a vehicle, each group of four rats was monitored for 15 days. […] Therefore, the approximate lethal dose of compound 2b in this study was estimated to be more than 500 mg/kg.
Figure 3 Body weight changes in male rats (n = 4) treated with compound 2b in a single-dose toxicity study. ** p < 0.01, compared to the control at the same time point (Dunnett’s test).

in vitro [12] = settings: Chinese hamster, Cytotoxicity (CC50) CHO-K1, EZ-Cytox, 24 h
[13] = EZ-Cytox cell viability assay, L929; settings: mouse, Cytotoxicity (CC50) L929, EZ-Cytox
[14] = EZ-Cytox cell viability assay, HFL-1; settings: human, Cytotoxicity (CC50) HFL-1, EZ-Cytox
[15] = CC50/IC50 for inhibiting SARS-CoV-2 infection, Vero cells

For `O=c1[nH]c(Nc2cc(Cl)cc(Cl)c2)nc2cccc(O)c12` [Compound 5c, 2-((3,5-Dichlorophenyl)amino)-5-hydroxyquinazolin-4(3H)-one], which “SI (selectivity index)” value (SARS-CoV-2; [15]) is on record?
The value was greater than 168.

And the IC50 (SARS-CoV-2; Vero cells)?
Its IC50 is 150 nM.

And the melting point?
Its melting point is greater than 300 °C.

And the CC50 at 24 h (in vitro [1])?
Its CC50 at 24 h is greater than 25 µM.

For `Cc1ccc(S(=O)(=O)N(c2cc(Cl)cc(Cl)c2)c2nc3cc(Cl)ccc3c(=O)[nH]2)cc1` [Compound 6d, N-(7-Chloro-4-oxo-3,4-dihydroquinazolin-2-yl)-N-(3,5-dichlorophenyl)-4-methylben-zenesulfonamide], which “SI (selectivity index)” value (SARS-CoV-2; [15]) is on record?
Its value is greater than 44.

What about the IC50 (SARS-CoV-2; Vero cells) of the same compound?
Its IC50 is 570 nM.

And the melting point?
The melting point was 163 to 165 °C.

And the CC50 at 24 h (in vitro [1])?
Its CC50 at 24 h is greater than 25 µM.

With `O=C1CC2(CCCC2)CC(=O)N1CCCCN1CCN(c2ncccn2)CC1` [buspirone, reference compound] as the compound, how does the “Microsomal Stability (%) Rat” value [2] read?
Its value is less than 5%.

And the “Microsomal Stability (%) Human” value [3]?
Its value is less than 10%.

Which IC50 (SARS-CoV-2; Vero cells) does the source give for `CN(c1cc(Cl)cc(Cl)c1)c1nc2cc(Cl)ccc2c(=O)[nH]1` [Compound 6c, 7-Chloro-2-((3,5-dichlorophenyl)(methyl)amino)quinazolin-4(3H)-one] here?
The IC50 was 5660 nM.

What about the melting point of the same compound?
The melting point was 287 to 289 °C.

And the CC50 at 24 h (in vitro [1])?
The CC50 at 24 h was greater than 25 µM.

Which IC50 (SARS-CoV-2; Vero cells) does the source give for `O=c1[nH]c(Nc2cc(Cl)cc(Cl)c2)nc2cc(Cl)ccc12` [Compound 1a, 7-Chloro-2-((3,5-dichlorophenyl)amino)quinazolin-4(3H)-one] here?
Its IC50 is 230 nM.

What about the CC50 at 24 h (in vitro [1]) of the same compound?
The CC50 at 24 h was greater than 25 µM.

What about the Cytotoxicity (Vero cells) of the same compound?
The Cytotoxicity was “no cytotoxicity”.

And the AUC24h [4]?
The AUC24h was 6.62 µg·h/mL.

And the Cmax [4]?
The Cmax was 0.87 µg/mL.

For `CC(=O)N(c1cc(Cl)cc(Cl)c1)c1nc2cc(Cl)ccc2c(=O)[nH]1` [Compound 2a, N-(7-Dichloro-4-oxo-3,4-dihydroquinazolin-2-yl)-N-(3,5-dichlorophenyl)acetamide], which “SI (selectivity index)” value (SARS-CoV-2) is on record?
The value was 26.

What about the IC50 (SARS-CoV-2; Vero cells) of the same compound?
The IC50 was 330 nM.

What about the IC50 [5] of the same compound?
The IC50 was 540 nM.

And the Cmax [6]?
The Cmax was 1850 ng/mL.

What about the Tmax [6] of the same compound?
Its Tmax is 4.67 h.

And the half-life [6]?
The half-life was 297 min.

What about the AUC(0-t) [6] of the same compound?
The AUC(0-t) was 24300 ng·h/mL.

What about the melting point of the same compound?
The melting point was 236 to 238 °C.

What about the CC50 at 24 h (in vitro [1]) of the same compound?
The CC50 at 24 h was 9.39 µM.

What about the IC50 (hERG K+ channel) of the same compound?
Its IC50 is 15.2 µM.

And the CC50 at 24 h [7]?
The CC50 at 24 h was less than 10 µM.

And the CC50 [8]?
The CC50 was 7.6 µM.

Which results are given for `CCC(CC)COC(=O)[C@H](C)N[P@](=O)(OC[C@H]1O[C@@](C#N)(c2ccc3c(N)ncnn23)[C@H](O)[C@@H]1O)Oc1ccccc1` [Remdesivir, reference compound]?
SI (selectivity index) (SARS-CoV-2): > 14; IC50 (SARS-CoV-2; Vero cells): 3470 nM; CC50 at 24 h [9]: > 50 µM

Which results are given for `CC(C)C(=O)OC[C@H]1O[C@@H](n2ccc(NO)nc2=O)[C@H](O)[C@@H]1O` [molnupiravir]?
Incidence of hospitalization or death at day 29 ([10]; 48 out of 709 patients): 6.8%; Reduction in COVID-19-related hospitalization or death ([10]; versus placebo): 30%

For `O=C(C(O)OCc1ccccc1)N(c1cc(Cl)cc(Cl)c1)c1nc2cc(Cl)ccc2c(=O)[nH]1` (stereo not shown), which melting point is on record?
The melting point was 282 to 284 °C.

With `CC(=O)N(c1cc(F)cc(F)c1)c1nc2cc(Cl)ccc2c(=O)[nH]1` [Compound 2b, N-(7-Chloro-4-oxo-3,4-dihydroquinazolin-2-yl)-N-(3,5-difluorophenyl)acetamide] as the compound, how does the IC50 (SARS-CoV-2; Vero cells) read?
The IC50 was 290 nM.

What about the IC50 [5] of the same compound?
Its IC50 is 990 nM.

And the Cmax [6]?
The Cmax was 5560 ng/mL.

And the Tmax [6]?
Its Tmax is 4 h.

What about the half-life [6] of the same compound?
Its half-life is 118 min.

What about the AUC(0-t) [6] of the same compound?
The AUC(0-t) was 41600 ng·h/mL.

What about the “Clinical signs: animals with liquid feces” value ([11]; 250 mg/kg group) of the same compound?
Its value is “one animal”.

What about the Body weight change ([11]; 250 mg/kg, day 4, Dunnett's test) of the same compound?
Its Body weight change is “statistically significant reduction”.

And the “Clinical signs: animals with liquid feces” value ([11]; 500 mg/kg group)?
The value was “two animals”.

What about the Body weight change ([11]; 500 mg/kg, days 4 and 8, Dunnett's test) of the same compound?
Its Body weight change is “statistically significant reduction”.

What about the “Gross observations of the organs” value ([11]; 250 and 500 mg/kg) of the same compound?
Its value is “did not reveal changes in any of the organs examined”.

What about the Mortality ([11]; single oral dose 250 and 500 mg/kg, monitored 15 days) of the same compound?
Its Mortality is “no deaths; also recorded: no mortality; also recorded: no animals died”.

What about the Approximate lethal dose ([11]; single oral dose, male rats) of the same compound?
The Approximate lethal dose was “greater than 500 mg/kg”.

And the CC50 at 24 h (in vitro [1])?
Its CC50 at 24 h is greater than 25 µM.

What about the CC50 (in vitro [12]) of the same compound?
Its CC50 is 14.6 µM.

And the IC50 (hERG K+ channel)?
Its IC50 is 30 µM.

What about the CC50 at 24 h [13] of the same compound?
Its CC50 at 24 h is 17.9 µM.

What about the CC50 at 24 h [14] of the same compound?
Its CC50 at 24 h is 12.6 µM.

And the CC50 at 24 h [7]?
The CC50 at 24 h was 22.7 µM.

With `O=C(CO)N(c1cc(Cl)cc(Cl)c1)c1nc2cc(Cl)ccc2c(=O)[nH]1` [Compound 8, N-(7-Chloro-4-oxo-3,4-dihydroquinazolin-2-yl)-N-(3,5-dichlorophenyl)-2-hydroxy-acetamide] as the compound, how does the “SI (selectivity index)” value (SARS-CoV-2; [15]) read?
Its value is greater than 10.

And the IC50 (SARS-CoV-2; Vero cells)?
The IC50 was 2570 nM.

What about the melting point of the same compound?
The melting point was 263 to 265 °C.

What about the CC50 at 24 h (in vitro [1]) of the same compound?
Its CC50 at 24 h is greater than 25 µM.

With `CCC(=O)N(c1cc(Cl)cc(Cl)c1)c1nc2cc(Cl)ccc2c(=O)[nH]1` [Compound 6a, N-(7-Chloro-4-oxo-3,4-dihydroquinazolin-2-yl)-N-(3,5-dichlorophenyl)propionamide] as the compound, how does the “SI (selectivity index)” value (SARS-CoV-2; [15]) read?
Its value is greater than 117.

What about the IC50 (SARS-CoV-2; Vero cells) of the same compound?
Its IC50 is 210 nM.

And the melting point?
The melting point was 223 to 225 °C.

And the CC50 at 24 h (in vitro [1])?
The CC50 at 24 h was greater than 25 µM.

Which results are given for `O=c1[nH]c(Nc2cc(F)cc(F)c2)nc2cc(Cl)ccc12` [Compound 1b, 7-Chloro-2-((3,5-difluorophenyl)amino)quinazolin-4(3H)-one]?
SI (selectivity index) (SARS-CoV-2; [15]): 74; IC50 (SARS-CoV-2; Vero cells): 240 nM; CC50 at 24 h (in vitro [1]): 18 µM

With `COC(=O)N(c1cc(Cl)cc(Cl)c1)c1nc2cc(Cl)ccc2c(=O)[nH]1` [Compound 6b, Methyl (7-Chloro-4-oxo-3,4-dihydroquinazolin-2-yl)(3,5-dichlorophenyl)carbamate] as the compound, how does the IC50 (SARS-CoV-2; Vero cells) read?
The IC50 was 7050 nM.

And the melting point?
The melting point was 218 to 220 °C.

And the CC50 at 24 h ([9]; uninfected Vero cells)?
Its CC50 at 24 h is greater than 25 µM.

With `CC(=O)N(c1cc(Cl)cc(Cl)c1)c1nc2cccc(O)c2c(=O)[nH]1` [Compound 2c, N-(3,5-Dichlorophenyl)-N-(5-hydroxy-4-oxo-3,4-dihydroquinazolin-2-yl)acetamide] as the compound, how does the IC50 (SARS-CoV-2; Vero cells) read?
The IC50 was 110 nM.

What about the Cmax [6] of the same compound?
Its Cmax is 1960 ng/mL.

What about the Tmax [6] of the same compound?
Its Tmax is 3.33 h.

What about the half-life [6] of the same compound?
The half-life was 401 min.

And the AUC(0-t) [6]?
Its AUC(0-t) is 10800 ng·h/mL.

What about the CC50 at 24 h (in vitro [1]) of the same compound?
The CC50 at 24 h was greater than 25 µM.

What about the CC50 (in vitro [12]) of the same compound?
The CC50 was 17.1 µM.

And the IC50 (hERG K+ channel)?
Its IC50 is greater than 50 µM.

And the CC50 at 24 h [13]?
The CC50 at 24 h was 42.7 µM.

And the CC50 at 24 h [14]?
The CC50 at 24 h was 13.7 µM.

And the CC50 at 24 h [7]?
Its CC50 at 24 h is 59.9 µM.

And the “Microsomal Stability (%) Rat” value [2]?
The value was 57%.

And the “Microsomal Stability (%) Human” value [3]?
The value was 10%.
